Data set [1] relates to T1, Frp2 (28.5 kDa ferric reductase).
T1 construct: native purification from camphor-grown cells; chromosome-coded
Put plainly: initial rate of A340 decrease, Lineweaver-Burk. In kind it is biochemical, Pseudomonas putida. Conditions: anaerobic, DCPIP as terminal acceptor.

In data set [2] the target is T2, 2,5-DKCMO (2,5-diketocamphane monooxygenase; 25DKCMO).
T2 construct: gene camE25-1; oxygenating subunit, native purification from camphor-grown cells; CAM plasmid-coded; homodimer; nine Trp per monomer
Put plainly: spectrophotometric titration at […] nm. In kind it is binding, Pseudomonas putida. The note with it: aerobic, Tris-HCl pH 7.6, 10 µM FMN.

The target in data set [3] is T3, 3,6-DKCMO (3,6-diketocamphane monooxygenase; 36DKCMO) (Pseudomonas putida, UniProt D7UER1).
T3 construct: gene camE36; oxygenating subunit, native purification from camphor-grown cells; CAM plasmid-coded; homodimer; five Trp per monomer
T3 sequence (D7UER1 1-378): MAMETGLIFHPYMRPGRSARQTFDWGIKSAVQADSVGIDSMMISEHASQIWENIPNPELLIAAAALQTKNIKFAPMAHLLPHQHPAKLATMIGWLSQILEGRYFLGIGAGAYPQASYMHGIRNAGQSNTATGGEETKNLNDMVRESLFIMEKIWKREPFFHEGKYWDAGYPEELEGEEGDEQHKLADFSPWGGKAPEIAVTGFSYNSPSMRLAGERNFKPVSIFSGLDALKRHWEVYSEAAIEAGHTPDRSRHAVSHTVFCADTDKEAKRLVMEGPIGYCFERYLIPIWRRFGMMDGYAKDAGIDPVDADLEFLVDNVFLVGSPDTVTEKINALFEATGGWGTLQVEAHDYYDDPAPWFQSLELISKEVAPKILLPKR
Description: spectrophotometric titration at […] nm. The format is binding.

The test system of data set [4] is T4, Frp1 (27.0 kDa ferric reductase).
T4 construct: native purification from camphor-grown cells; chromosome-coded
Put plainly: initial rate of A340 decrease, Lineweaver-Burk. In kind it is biochemical, Pseudomonas putida. Conditions: anaerobic, DCPIP as terminal acceptor.

The target in data set [5] is T2, 2,5-DKCMO (2,5-diketocamphane monooxygenase; 25DKCMO). Description: tryptophan fluorescence quenching titration (ex […] nm, em […] nm). The format is binding, Pseudomonas putida. Conditions: anaerobic, 60 mM Tris/HCl pH 7.6, 10 µM enzyme; FNR made by photoreduction with EDTA.
In data set [6] the target is T3, 3,6-DKCMO (3,6-diketocamphane monooxygenase; 36DKCMO). The description is as above. The format is binding.
Substrate in data set [7]: Cc1cc2nc3c(=O)[nH]c(=O)nc-3n(C[C@H](O)[C@H](O)[C@H](O)COP(=O)(O)O)c2cc1C
Put plainly: initial rate of A340 decrease, Lineweaver-Burk. The format is biochemical, Pseudomonas putida. The note with it: anaerobic, 60 mM Tris/HCl pH 7.6, NADH as donor, cytochrome c as terminal acceptor.

Substrate in data set [8]: NC(=O)C1=CN([C@@H]2O[C@H](COP(=O)(O)OP(=O)(O)OC[C@H]3O[C@@H](n4cnc5c(N)ncnc54)[C@H](O)[C@@H]3O)[C@@H](O)[C@H]2O)C=CC1
Description: initial rate of A340 decrease, Lineweaver-Burk. The note with it: anaerobic. The format is biochemical, Pseudomonas putida.

The mark [9] stands for this setting: 60 mM Tris/HCl pH 7.6, NADH as donor.
[10] abbreviates: 60 mM Tris/HCl pH 7.6, FMN as acceptor.
The mark [11] stands for this setting: 60 mM Tris/HCl pH 7.6, 10 µM putidaredoxin plus 30 µM cytochrome c as acceptor.

From paper PMC5192521, “Flavin-Dependent Redox Transfers by the Two-Component Diketocamphane Monooxygenases of Camphor-Grown Pseudomonas putida NCIMB 10007” (Microorganisms, 2016) come the findings set out here.

Turning to `Cc1cc2nc3c(=O)[nH]c(=O)nc-3n(C[C@H](O)[C@H](O)[C@H](O)COP(=O)(O)O)c2cc1C` [FMN], the Km – broadly, the substrate concentration at which the rate is half of its maximum – in data set [1] (setting [9]) amounted to 8.6 µM; in data set [4] (setting [9]), 6.9 µM. In addition, the figures for the Kd in data set [2] and in data set [3] were 109 µM and 125 µM, respectively.

As for `Cc1cc2nc3c(=O)[nH]c(=O)nc-3n(C[C@H](O)[C@H](O)[C@H](O)COP(=O)(O)OP(=O)(O)OC[C@H]3O[C@@H](n4cnc5c(N)ncnc54)[C@H](O)[C@@H]3O)c2cc1C` [FAD], the Km in data set [4] (60 mM Tris/HCl pH 7.6, NADH as donor, kcat as printed although text calls FAD activity much lower) came to 68.8 µM.

On to `NC(=O)C1=CN([C@@H]2O[C@H](COP(=O)(O)OP(=O)(O)OC[C@H]3O[C@@H](n4cnc5c(N)ncnc54)[C@H](O)[C@@H]3O)[C@@H](O)[C@H]2O)C=CC1` [NADH], for which the results for the Km in data set [1] (setting [10]) and in data set [4] (setting [10]) were 36 µM and 23 µM, respectively.

For the molecule `NC(=O)C1=CN([C@@H]2O[C@H](COP(=O)(O)OP(=O)(O)OC[C@H]3O[C@@H](n4cnc5c(N)ncnc54)[C@H](OP(=O)(O)O)[C@@H]3O)[C@@H](O)[C@H]2O)C=CC1` [NADPH], the Km in data set [1] (setting [10]) was found to be 92 µM.

As to `Cc1cc2c(cc1C)N(C[C@H](O)[C@H](O)[C@H](O)COP(=O)(O)O)c1[nH]c(=O)[nH]c(=O)c1N2` [FNR], the results for the dissociation constant Kd in data set [5] and in data set [6] were 0.21 µM and 0.24 µM, respectively.

B1: Fred (Pseudomonas putida) (protein)
chain: TKVAAEIVRSAIDPQWFRAVLGQYPTGVCAVTAMDPDGKMSGMAVGSFTSVSLNPPLVAFLPDRSSTSWPKIERAGKFCVNVLSDQQLGVCKRFASKDEDKFSGLVYRLSDNGSPIIEGVVAWIDCDLHSVQEAGDHYIVIGSVRELQVESEDSALLFYRGGYGGFAAI
notes: native purification from camphor-grown cells; chromosome-coded; 36 kDa homodimer
Take B1: the Km in data set [7] is given as 4.2 µM; in data set [8] (60 mM Tris/HCl pH 7.6, FMN as acceptor, cytochrome c as terminal acceptor), 28 µM. In addition, the kcat (as a rule, the maximal rate divided by the concentration of active sites) in data set [7] was 294 s⁻¹.

B2: PdR (putidaredoxin reductase) (Pseudomonas putida) (protein)
chain: MNANDNVVIVGTGLAGVEVAFGLRASGWEGNIRLVGDATVIPHHLPPLSKAYLAGKATAESLYLRTPDAYAAQNIQLLGGTQVTAINRDRQQVILSDGRALDYDRLVLATGGRPRPLPVASGAVGKANNFRYLRTLEDAECIRRQLIADNRLVVIGGGYIGLEVAATAIKANMHVTLLDTAARVLERVTAPPVSAFYEHLHREAGVDIRTGTQVCGFEMSTDQQKVTAVLCEDGTRLPADLVIAGIGLIPNCELASAAGLQVDNGIVINEHMQTSDPLIMAVGDCARFHSQLYDRWVRIESVPNALEQARKIAAILCGKVPRDEAAPWFWSDQYEIGLKMVGLSEGYDRIIVRGSLAQPDFSVFYLQGDRVLAVDTVNRPVEFNQSKQIITDRLPVEPNLLGDESVPLKEIIAAAKAELSSA
notes: native purification from camphor-grown cells; FAD flavoprotein; CAM plasmid-coded
With B2, in data set [8] (setting [11]), the Km was determined as 5.9 µM and the kcat came to 102 s⁻¹.
